Test results: patent publication US8574563B2 (Bristol-Myers Squibb Company, priority 2006, dated 2013)
Like-named read-outs stand apart in the source and are kept apart here.

Tested on: HCV 1b-377-neo replicon cells
Assay: HCV replicon assay, HCV 1b-377-neo replicon cells (1b FRET)
Assay type: cell-based, Hepatitis C virus genotype 1b
Conditions: HCV 1b-377-neo replicon cells, HCV 1b genotype, read-out: EC50 range against HCV 1b (Table 2, Range)
In short: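 Compounds were tested in genotype 1b subgenomic replicon cells carrying a neomycin marker, alongside a matched replicon line with an NS5A Y2065H substitution that confers resistance to a reference NS5A inhibitor.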

COC(=O)N[C@@H](C(=O)N1CCC[C@H]1c1ncc(-c2ccc(-c3ccc(-c4cnc([C@@H]5CCCN5C(=O)CN(C)C)[nH]4)cc3)cc2)[nH]1)c1ccccc1 [Example 37, methyl ((1R)-2-((2S)-2-(5-(4′-(2-((2S)-1-(N,N-dimethylglycyl)-2-pyrrolidinyl)-1H-imidazol-5-yl)-4-biphenylyl)-1H-imidazol-2-yl)-1-pyrrolidinyl)-2-oxo-1-phenylethyl)carbamate]
EC50 (Hepatitis C virus): 0.001 to 0.999 nM

COC(=O)N[C@@H](C(=O)N1CCC[C@H]1c1ncc(-c2ccc(-c3ccc(-c4cnc([C@@H]5CCCN5C(=O)[C@H](c5ccccc5)N(C)C)[nH]4)cc3)cc2)[nH]1)c1ccccc1 [Example 38, methyl ((1R)-2-((2S)-2-(5-(4′-(2-((2S)-1-((2S)-2-(dimethylamino)-2-phenylacetyl)-2-pyrrolidinyl)-1H-imidazol-5-yl)-4-biphenylyl)-1H-imidazol-2-yl)-1-pyrrolidinyl)-2-oxo-1-phenylethyl)carbamate]
EC50 (Hepatitis C virus): 0.001 to 0.999 nM

COC(=O)N[C@@H](C(=O)N1CCC[C@H]1c1ncc(-c2ccc(-c3ccc(-c4cnc([C@@H]5CCCN5C(=O)CN5CCOCC5)[nH]4)cc3)cc2)[nH]1)c1ccccc1 [Example 39, methyl ((1R)-2-((2S)-2-(5-(4′-(2-((2S)-1-(4-morpholinylacetyl)-2-pyrrolidinyl)-1H-imidazol-5-yl)-4-biphenylyl)-1H-imidazol-2-yl)-1-pyrrolidinyl)-2-oxo-1-phenylethyl)carbamate]
EC50 (Hepatitis C virus): 0.001 to 0.999 nM

COC(=O)NCC(=O)N1CCC[C@H]1c1ncc(-c2ccc(-c3ccc(-c4cnc([C@@H]5CCCN5C(=O)[C@H](NC(=O)OC)c5ccccc5)[nH]4)cc3)cc2)[nH]1 [Example 40, methyl (2-((2S)-2-(5-(4′-(2-((2S)-1-((2R)-2-((methoxycarbonyl)amino)-2-phenylacetyl)-2-pyrrolidinyl)-1H-imidazol-5-yl)-4-biphenylyl)-1H-imidazol-2-yl)-1-pyrrolidinyl)-2-oxoethyl)carbamate]
EC50 (Hepatitis C virus): 0.001 to 0.999 nM

COC(=O)N[C@@H](C(=O)N1CCC[C@H]1c1ncc(-c2ccc(-c3ccc(-c4cnc([C@@H]5CCCN5C(=O)CNC(C)=O)[nH]4)cc3)cc2)[nH]1)c1ccccc1 [Example 41, methyl ((1R)-2-((2S)-2-(5-(4′-(2-((2S)-1-(N-acetylglycyl)-2-pyrrolidinyl)-1H-imidazol-5-yl)-4-biphenylyl)-1H-imidazol-2-yl)-1-pyrrolidinyl)-2-oxo-1-phenylethyl)carbamate]
EC50 (Hepatitis C virus): 0.001 to 0.999 nM

COC(=O)N[C@@H](C(=O)N1CCC[C@H]1c1ncc(-c2ccc(-c3ccc(-c4cnc([C@@H]5CCCN5C(=O)[C@@H](c5ccccc5)N(C)C)[nH]4)cc3)cc2)[nH]1)c1ccccc1 [Example 42, methyl ((1R)-2-((2S)-2-(5-(4′-(2-((2S)-1-((2R)-2-(dimethylamino)-2-phenylacetyl)-2-pyrrolidinyl)-1H-imidazol-5-yl)-4-biphenylyl)-1H-imidazol-2-yl)-1-pyrrolidinyl)-2-oxo-1-phenylethyl)carbamate]
EC50 (Hepatitis C virus): 0.001 to 0.999 nM

COC(=O)N[C@@H](C(=O)N1CCC[C@H]1c1ncc(-c2ccc(-c3ccc(-c4cnc([C@@H]5CCCN5C(=O)[C@H](O)c5ccccc5)[nH]4)cc3)cc2)[nH]1)c1ccccc1 [Example 43, methyl ((1R)-2-((2S)-2-(5-(4′-(2-((2S)-1-((2R)-2-hydroxy-2-phenylacetyl)-2-pyrrolidinyl)-1H-imidazol-5-yl)-4-biphenylyl)-1H-imidazol-2-yl)-1-pyrrolidinyl)-2-oxo-1-phenylethyl)carbamate]
EC50 (Hepatitis C virus): 0.001 to 0.999 nM

COC(=O)N[C@@H](C(=O)N1CCC[C@H]1c1ncc(-c2ccc(-c3ccc(-c4cnc([C@@H]5CCCN5C(=O)C5CCN(C)CC5)[nH]4)cc3)cc2)[nH]1)c1ccccc1 [Example 44, methyl ((1R)-2-((2S)-2-(5-(4′-(2-((2S)-1-((1-methyl-4-piperidinyl)carbonyl)-2-pyrrolidinyl)-1H-imidazol-5-yl)-4-biphenylyl)-1H-imidazol-2-yl)-1-pyrrolidinyl)-2-oxo-1-phenylethyl)carbamate]
EC50 (Hepatitis C virus): 0.001 to 0.999 nM

COC(=O)N[C@@H](C(=O)N1CCC[C@H]1c1ncc(-c2ccc(-c3ccc(-c4cnc([C@@H]5CCCN5C(=O)C5CCOCC5)[nH]4)cc3)cc2)[nH]1)c1ccccc1 [Example 45, methyl ((1R)-2-oxo-1-phenyl-2-((2S)-2-(5-(4′-(2-((2S)-1-(tetrahydro-2H-pyran-4-ylcarbonyl)-2-pyrrolidinyl)-1H-imidazol-5-yl)-4-biphenylyl)-1H-imidazol-2-yl)-1-pyrrolidinyl)ethyl)carbamate]
EC50 (Hepatitis C virus): 0.001 to 0.999 nM

COC(=O)N[C@@H](C(=O)N1CCC[C@H]1c1ncc(-c2ccc(-c3ccc(-c4cnc([C@@H]5CCCN5C(=O)Cc5ccccn5)[nH]4)cc3)cc2)[nH]1)c1ccccc1 [Example 46, methyl ((1R)-2-oxo-1-phenyl-2-((2S)-2-(5-(4′-(2-((2S)-1-(2-pyridinylacetyl)-2-pyrrolidinyl)-1H-imidazol-5-yl)-4-biphenylyl)-1H-imidazol-2-yl)-1-pyrrolidinyl)ethyl)carbamate]
EC50: 0.001 to 0.999 nM

COC(=O)N[C@@H](C(=O)N1CCC[C@H]1c1ncc(-c2ccc(-c3ccc(-c4cnc([C@@H]5CCCN5C(=O)Cc5cccnc5)[nH]4)cc3)cc2)[nH]1)c1ccccc1 [Example 47, methyl ((1R)-2-oxo-1-phenyl-2-((2S)-2-(5-(4′-(2-((2S)-1-(3-pyridinylacetyl)-2-pyrrolidinyl)-1H-imidazol-5-yl)-4-biphenylyl)-1H-imidazol-2-yl)-1-pyrrolidinyl)ethyl)carbamate]
EC50 (Hepatitis C virus): 0.001 to 0.999 nM

COC(=O)N[C@@H](C(=O)N1CCC[C@H]1c1ncc(-c2ccc(-c3ccc(-c4cnc([C@@H]5CCCN5C(=O)Cc5ccncc5)[nH]4)cc3)cc2)[nH]1)c1ccccc1 [Example 48, methyl ((1R)-2-oxo-1-phenyl-2-((2S)-2-(5-(4′-(2-((2S)-1-(4-pyridinylacetyl)-2-pyrrolidinyl)-1H-imidazol-5-yl)-4-biphenylyl)-1H-imidazol-2-yl)-1-pyrrolidinyl)ethyl)carbamate]
EC50 (Hepatitis C virus): 0.001 to 0.999 nM

COC(=O)N[C@@H](C(=O)N1CCC[C@H]1c1ncc(-c2ccc(-c3ccc(-c4cnc([C@@H]5CCCN5C(=O)c5cncn5C)[nH]4)cc3)cc2)[nH]1)c1ccccc1 [Example 49, methyl ((1R)-2-((2S)-2-(5-(4′-(2-((2S)-1-((1-methyl-1H-imidazol-5-yl)carbonyl)-2-pyrrolidinyl)-1H-imidazol-5-yl)-4-biphenylyl)-1H-imidazol-2-yl)-1-pyrrolidinyl)-2-oxo-1-phenylethyl)carbamate]
EC50 (Hepatitis C virus): 0.001 to 0.999 nM

COC(=O)N[C@@H](C(=O)N1CCC[C@H]1c1ncc(-c2ccc(-c3ccc(-c4cnc([C@@H]5CCCN5C(=O)N(C)C)[nH]4)cc3)cc2)[nH]1)c1ccccc1 [Example 50, methyl ((1R)-2-((2S)-2-(5-(4′-(2-((2S)-1-(dimethylcarbamoyl)-2-pyrrolidinyl)-1H-imidazol-5-yl)-4-biphenylyl)-1H-imidazol-2-yl)-1-pyrrolidinyl)-2-oxo-1-phenylethyl)carbamate]
EC50 (Hepatitis C virus): 100 to 999 nM

COC(=O)N[C@@H](C(=O)N1CCC[C@H]1c1ncc(-c2ccc(-c3ccc(-c4cnc([C@@H]5CCCN5C(=O)[C@H]5CCCN5C)[nH]4)cc3)cc2)[nH]1)c1ccccc1 [Example 51, methyl ((1R)-2-((2S)-2-(5-(4′-(2-((2S)-1-(1-methyl-D-prolyl)-2-pyrrolidinyl)-1H-imidazol-5-yl)-4-biphenylyl)-1H-imidazol-2-yl)-1-pyrrolidinyl)-2-oxo-1-phenylethyl)carbamate]
EC50 (Hepatitis C virus): 0.001 to 0.999 nM

COC(=O)N[C@@H](C(=O)N1CCC[C@H]1c1ncc(-c2ccc(-c3ccc(-c4cnc([C@@H]5CCCN5C(=O)[C@@H]5CCCN5C)[nH]4)cc3)cc2)[nH]1)c1ccccc1 [Example 52, methyl ((1R)-2-((2S)-2-(5-(4′-(2-((2S)-1-(1-methyl-L-propyl)-2-pyrrolidinyl)-1H-imidazol-5-yl)-4-biphenylyl)-1H-imidazol-2-yl)-1-pyrrolidinyl)-2-oxo-1-phenylethyl)carbamate]
EC50: 0.001 to 0.999 nM

COC(=O)N[C@@H](C(=O)N1CCC[C@H]1c1ncc(-c2ccc(-c3ccc(-c4cnc([C@@H]5CCCN5C(=O)[C@@H](C)NC(C)=O)[nH]4)cc3)cc2)[nH]1)c1ccccc1 [Example 53, methyl ((1R)-2-((2S)-2-(5-(4′-(2-((2S)-1-(N-acetyl-D-alanyl)-2-pyrrolidinyl)-1H-imidazol-5-yl)-4-biphenylyl)-1H-imidazol-2-yl)-1-pyrrolidinyl)-2-oxo-1-phenylethyl)carbamate]
EC50 (Hepatitis C virus): 0.001 to 0.999 nM

COC(=O)N[C@@H](C(=O)N1CCC[C@H]1c1ncc(-c2ccc(-c3ccc(-c4cnc([C@@H]5CCCN5C(=O)[C@H](C)NC(C)=O)[nH]4)cc3)cc2)[nH]1)c1ccccc1 [Example 54, methyl ((1R)-2-((2S)-2-(5-(4′-(2-((2S)-1-(N-acetyl-L-ananyl)-2-pyrrolidinyl)-1H-imidazol-5-yl)-4-biphenylyl)-1H-imidazol-2-yl)-1-pyrrolidinyl)-2-oxo-1-phenylethyl)carbamate]
EC50: 0.001 to 0.999 nM

COCC(=O)N1CCC[C@H]1c1ncc(-c2ccc(-c3ccc(-c4cnc([C@@H]5CCCN5C(=O)[C@H](NC(=O)OC)c5ccccc5)[nH]4)cc3)cc2)[nH]1 [Example 55, methyl ((1R)-2-((2S)-2-(5-(4′-(2-((2S)-1-(methoxyacetyl)-2-pyrrolidinyl)-1H-imidazol-5-yl)-4-biphenylyl)-1H-imidazol-2-yl)-1-pyrrolidinyl)-2-oxo-1-phenylethyl)carbamate]
EC50 (Hepatitis C virus): 0.001 to 0.999 nM

CC[C@@H](O)C(=O)N1CCC[C@H]1c1ncc(-c2ccc(-c3ccc(-c4cnc([C@@H]5CCCN5C(=O)[C@H](NC(=O)OC)c5ccccc5)[nH]4)cc3)cc2)[nH]1 [Example 56, methyl ((1R)-2-((2S)-2-(5-(4′-(2-((2S)-1-((2R)-2-hydroxybutanoyl)-2-pyrrolidinyl)-1H-imidazol-5-yl)-4-biphenylyl)-1H-imidazol-2-yl)-1-pyrrolidinyl)-2-oxo-1-phenylethyl)carbamate]
EC50 (Hepatitis C virus): 0.001 to 0.999 nM
